Data published in patent US12616753B2, “HSP70 inhibitors and methods of using same” (THE WISTAR INSTITUTE, priority 2020, dated 2026).

How the values were obtained:
[1] = Half-life of PET-16 in plasma
[2] = molecular target: N-terminal HIS tagged HSP70 (Homo sapiens, UniProt P0DMV8); assay: Small molecule binding to HSP70 using SPR (Biacore T200)
Protocol: SPR experiments were conducted using the Biacore T200. Approximately 20,000 RU of N-terminal HIS tagged HSP70 was immobilized on a multi-dentate NTA derivatized linear carboxylate sensor chip (NICH1500M, Xantec Bioanalytics). The running buffer was PBS containing 2 mM MgCl2, 0.05% Tween, and 5% DMSO. Test compounds were diluted at 20× final concentration in 100% DMSO and then diluted into running buffer without DMSO so that the DMSO concentrations in both the sample and the running buffer were similar. Flow rate was 30 μL/min, contact time for each sample concentration was 30 seconds, followed by a 60 second dissociation time. Data were analyzed using the Biacore evaluation software and the resulting sensograms exported and re-plotted in GraphPad Prism.
The next studies sought to determine whether AP-4-139B interacts directly with HSP70. To accomplish this, full-length His-tagged human HSP70 was used, and it was immobilized on a high affinity poly-Ni-NTA sensor chip for surface plasmon resonance experiments on a Biacore T200. This HSP70-loaded chip was incubated with AP-4-139B or the negative control VY-3-277. As a positive control the adenosine-derived HSP70 inhibitor Ver-155008 was used (Massey et al., Cancer Chemother Pharmacol. 2010 August; 66(3):535-45).

MC38 tumors = assay: Flow cytometric immunophenotyping of MC38 tumors; assay type: in vivo, mouse; conditions: 10 mg/kg every 48 hours, 20 days
Protocol: FIG. 6A: 1×10^6 MC38 cells were injected subcutaneously into the right flank of 6-8-week-old male C57Bl/6 mice. Once tumors reached an approximate volume of 100 mm^3, mice were treated with AP-4-139B (10 mg/kg) every 48 hours. 20 days after the start of treatment, tumors were excised, weighed, minced and digested. Tumor-infiltrating and splenic conventional CD4 (cCD4) (Live CD45^+ DUMP^− CD3^+CD4^+Foxp3^−), Tregs (Live CD45^+ DUMP^− CD3^+CD4^+Foxp3^+), CD8 (Live CD45^+ DUMP^− CD3^+CD8^+) T-cells, and Dendritic Cells (Live CD45^+ DUMP^− CD3^−CD11c^+MHCII^+) numbers were assessed by flow cytometry. * p<0.05, n.s. not significant. n=8 mice per group. FIG. 6B: MC38 and HT-29 cells were treated with the indicated concentrations of AP-4-139B for either 8 or 24 hours; media was collected and subjected to WB for HMGB1. Data shown are representative of three technical replicates. FIG. 6C: MC38 and HT-29 cells were treated with the indicated concentrations of AP-4-139B for three hours and then assayed for extracellular ATP release. […]
Tumors were excised, weighed with an electronic scale, minced and digested in 5 mL HBSS containing 1 mg/ml Type 1 Collagenase from Clostridium histolyticum (Sigma-Aldrich) for 30 minutes at 37° C. […] Samples were analyzed using FACSymphony A3 (BD Biosciences) flow cytometer equipped with 5 lasers. Data were analyzed using FlowJo Version 10 and GraphPad Prism software.

MC38 cells = assay: Cell death of MC38 cells pre-treated for vaccination (Trypan Blue staining); assay type: cell-based, mouse; conditions: 10 μM, 48 h
Protocol: For in vivo metastasis assays, 8-10 week old male C57Bl/6 mice were injected with 4×10^5 MC38 cells. Mice were then treated with either vehicle or 10 mg/kg AP-4-139B every 48 hours for 3 weeks. At the end of the study, mice were euthanized, lungs were harvested and fixed in formalin for analysis of lung tumor nodules by H&E. For anti-tumor vaccination studies, MC38 cells were treated with 10 μM AP-4-139B for 48 h, resulting in approximately 20% cell death (as assessed by Trypan Blue staining). 2×10^6 pre-treated MC38 cells or PBS was inoculated subcutaneously into the left flank of 8-10 week old male C57BL/6 mice. Ten days later, mice were challenged on the right flank with 5×10^5 live MC38 cells, and tumor growth and incidence were monitored 3 times per week. The absence of tumors was scored as an indication for efficient antitumor vaccination.

Sequence of N-terminal HIS tagged HSP70 (P0DMV8 whole entry): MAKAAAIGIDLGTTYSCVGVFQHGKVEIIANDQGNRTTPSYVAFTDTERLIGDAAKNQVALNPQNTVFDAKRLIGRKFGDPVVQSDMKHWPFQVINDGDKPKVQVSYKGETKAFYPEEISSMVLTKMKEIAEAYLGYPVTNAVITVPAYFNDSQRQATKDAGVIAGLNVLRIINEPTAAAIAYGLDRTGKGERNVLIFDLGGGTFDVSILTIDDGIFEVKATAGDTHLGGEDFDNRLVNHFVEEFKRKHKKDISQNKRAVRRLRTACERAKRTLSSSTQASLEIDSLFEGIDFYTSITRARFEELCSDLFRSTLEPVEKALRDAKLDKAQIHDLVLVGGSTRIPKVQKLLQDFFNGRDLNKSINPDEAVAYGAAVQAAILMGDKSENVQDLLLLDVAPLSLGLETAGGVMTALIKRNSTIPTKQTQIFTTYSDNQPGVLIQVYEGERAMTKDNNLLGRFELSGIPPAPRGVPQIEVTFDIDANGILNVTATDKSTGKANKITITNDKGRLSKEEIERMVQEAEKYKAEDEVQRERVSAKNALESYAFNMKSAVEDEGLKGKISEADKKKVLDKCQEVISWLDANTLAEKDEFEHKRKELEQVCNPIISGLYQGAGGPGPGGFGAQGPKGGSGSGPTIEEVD

C(#C[P+](c1ccccc1)(c1ccccc1)c1ccccc1)c1ccccc1 [PET-16, Triphenyl(phenylethynyl)phosphonium bromide, reference compound]
half-life [1]: < 30 min

c1ccc(-c2cn3nc(CCCCCC[P+](c4ccccc4)(c4ccccc4)c4ccccc4)sc3n2)cc1 [AP-4-139B, Triphenyl(6-(6-phenylimidazo[2,1-b][1,3,4]thiadiazol-2-yl)hexyl)phosphonium bromide]
binding to sensor chips loaded with HSP70 [2]: reproducibly bound in concentration-dependent manner
abundance of immune cell types in spleens (MC38 tumors): no changes in abundance
immune cell infiltrates (CD4+ T cell, CD8+ T cell, dendritic cells, Tregs) in tumors (MC38 tumors): significantly increased immune cell infiltrates
cell death of MC38 cells (MC38 cells): approximately 20%
